Drawing on US9751874B2, “Hydroxy containing FXR (NR1H4) modulating compounds” (Gilead Sciences, Inc., priority 2014, dated 2017), this text covers EC50 for 12 compounds.

Assay [1] deals with T1, human FXR alpha ligand binding domain (Homo sapiens, UniProt Q96RI1).
T1 construct: made in house; host or cells: E. coli BL21(DE3), vector pDEST15
T1 sequence (Q96RI1 187-472 isoform Q96RI1-2): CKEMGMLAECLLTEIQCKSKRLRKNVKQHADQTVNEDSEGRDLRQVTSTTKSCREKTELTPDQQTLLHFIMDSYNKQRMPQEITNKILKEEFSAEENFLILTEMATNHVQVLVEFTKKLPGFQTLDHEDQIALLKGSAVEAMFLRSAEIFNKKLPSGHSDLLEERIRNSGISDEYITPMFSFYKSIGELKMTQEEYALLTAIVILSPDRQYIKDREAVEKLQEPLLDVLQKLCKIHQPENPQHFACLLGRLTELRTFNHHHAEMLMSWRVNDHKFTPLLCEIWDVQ
In words: FRET activity assay (ligand mediated cofactor peptide interaction, LANCE). It is filed as biochemical. The settings on record: GST-FXR-LBD / biotinylated SRC-1 peptide (676-700), read-out: F EC50. On the procedure: Determination of a ligand mediated cofactor peptide interaction to quantify ligand binding to the nuclear receptor FXR was performed as follows: Preparation of human FXR alpha ligand binding domain: The human FXRalpha LBD was expressed in E. coli strain BL21(DE3) as an N-terminally GST tagged fusion protein. The DNA encoding the FXR ligand binding domain was cloned into vector pDEST15 (Invitrogen). Expression was under control of an IPTG inducible T7 promoter. The amino acid boundaries of the ligand binding domain were amino acids 187-472 of Database entry NM_005123 (RefSeq). Expression and purification of the FXR-LBD: An overnight preculture of a transformed E. coli strain was diluted 1:20 in LB-Ampicillin medium and grown at 30° C. to an optical density of OD600=0.4-0.6. Gene expression was then induced by addition of 0.5 mM IPTG. Cells were incubated an additional 6 h at 30° C., 180 rpm. Cells were collected by centrifugation (7000×g, 7 min, rt). Per liter of original cell culture, cells were resuspended in 10 mL lysis buffer (50 mM Glucose, 50 mM Tris pH 7.9, 1 mM EDTA and 4 mg/mL lysozyme) and left on ice for 30 min. Cells were then subjected to sonication and cell debris removed via centrifugation (22000×g, 30 min, 4° C.). Per 10 mL of supernatant 0.5 mL prewashed Glutathione 4B sepharose slurry (Qiagen) was added and the suspension kept slowly rotating for 1 h at 4° C. Glutathione 4B sepharose beads were pelleted by centrifugation (2000×g, 15 sec, 4° C.) and washed twice in wash buffer (25 mM Tris, 50 mM KCl, 4 mM MgCl2 and 1M NaCl). The pellet was resuspended in 3 mL elution buffer per liter of original culture (elution buffer: 20 mM Tris, 60 mM KCl, 5 mM MgCl2 and 80 mM glutathione added immediately prior to use as powder). The suspension was left rotating for 15 min at 4° C., the beads pelleted and eluted again with half the volume of elution buffer than the first time. The eluates were pooled and dialysed overnight in 20 mM Hepes buffer (pH 7.5) containing 60 mM KCl, 5 mM MgCl2 as well as 1 mM dithiothreitol and 10% (v/v) glycerol. The protein was analysed by SDS-Page.
The method measures the ability of putative ligands to modulate the interaction between the purified bacterial expressed FXR ligand binding domain (LBD) and a synthetic biotinylated peptide based on residues 676-700 of SRC-1 (LCD2, 676-700). The sequence of the peptide used was B—[…]—COOH where the N-terminus was biotinylated (B). The ligand binding domain (LBD) of FXR was expressed as fusion protein with GST in BL-21 cells using the vector pDEST15. Cells were lysed by sonication, and the fusion proteins purified over glutathione sepharose (Pharmacia) according to the manufacturers instructions. For screening of compounds for their influence on the FXR-peptide interaction, the Perkin Elmer LANCE technology was applied. This method relies on the binding dependent energy transfer from a donor to an acceptor fluorophor attached to the binding partner of interest. For ease of handling and reduction of background from compound fluorescence LANCE technology makes use of generic fluorophore labels and time resolved detection Assays were done in a final volume of 25 μL in a 384 well plate, in a Tris-based buffer (20 mM Tris-HCl pH 7.5; 60 mM KCl, 5 mM MgCl2; 35 ng/μL BSA), containing 20-60 ng/well recombinantly expressed FXR-LBD fused to GST, 200-600 nM N-terminally biotinylated peptide, representing SRC1 aminoacids 676-700, 200 ng/well Streptavidin-xIAPC conjugate (Prozyme) and 6-10 ng/well Eu W1024-antiGST (Perkin Elmer). DMSO content of the samples was kept at 1%. After generation of the assay mix and diluting the potentially FXR modulating ligands, the assay was equilibrated for 1 h in the dark at rt in FIA-plates black 384 well (Greiner). The LANCE signal was detected by a Perkin Elmer VICTOR2VTM Multilabel Counter. The results were visualized by plotting the ratio between the emitted light at 665 and 615 nm. […]
On the technique in general: In TR-FRET formats the signal depends on donor and acceptor labels being close together.

The target in assay [2] is T2, FXR ligand binding domain (Homo sapiens, UniProt Q96RI1).
T2 construct: expressed in transfected cells; host or cells: HEK293 cells, transiently transfected with pCMV-BD-FXR-LBD, pFR-Luc and pRL-CMV
T2 sequence (Q96RI1 187-472 isoform Q96RI1-2): T1 sequence (Q96RI1 187-472 isoform Q96RI1-2)
In words: Mammalian One Hybrid (M1H) assay, Gal4 promoter driven transactivation in HEK293 cells. It is filed as cell-based. The settings on record: Gal4-FXR-LBD luciferase reporter, 16 h. On the procedure: Mammalian One Hybrid (M1H) Assay
Determination of a ligand mediated Gal4 promoter driven transactivation to quantify ligand binding mediated activation of FXR was performed as follows: The cDNA part encoding the FXR ligand binding domain was cloned into vector pCMV-BD (Stratagene) as a fusion to the yeast GAL4 DNA binding domain under the control of the CMV promoter. The amino acid boundaries of the ligand binding domain were amino acids 187-472 of Database entry NM_005123 (RefSeq). The plasmid pFR-Luc (Stratagene) was used as the reporter plasmid, containing a synthetic promoter with five tandem repeats of the yeast GAL4 binding sites, driving the expression of the Photinus pyralis (American firefly) luciferase gene as the reporter gene. In order to improve experimental accuracy the plasmid pRL-CMV (Promega) was cotransfected. pRL-CMV contains the constitutive CMV promoter, controlling the expression of the Renilla reniformis luciferase. All Gal4 reporter gene assays were done in HEK293 cells (obtained from DSMZ, Braunschweig, Germany) grown in MEM with L-Glutamine and Earle's BSS supplemented with 10% fetal bovine serum, 0.1 mM nonessential amino acids, 1 mM sodium pyruvate, and 100 units Penicilin/[…] per mL at 37° C. in 5% CO2. Medium and supplements were obtained from Invitrogen. For the assay, […] cells were plated per well in 96 well plates in 100 μL per well MEM without Phenol Red and L-Glutamine and with Earle's BSS supplemented with 10% charcoal/dextran treated FBS (HyClone, South Logan, Utah), 0.1 mM nonessential amino acids, 2 mM glutamine, 1 mM sodium pyruvate, and 100 units Penicilin/[…] per mL, incubated at 37° C. in 5% CO2. The following day the cells were >90% confluence. Medium was removed and cells were transiently transfected using 20 μL per well of a OptiMEM—polyethylene-imine-based transfection-reagent (OptiMEM, Invitrogen; Polyethyleneimine, Aldrich Cat No. 40,827-7) including the three plasmids described above. MEM with the same composition as used for plating cells was added 2-4 h after addition of transfection mixture. Then compound stocks, prediluted in MEM were added (final vehicle concentration not exceeding 0.1%). Cells were incubated for additional 16 h before firefly and renilla luciferase activities were measured sequentially in the same cell extract using a Dual-Light-Luciferase-Assay system (Dyer et al., Anal. Biochem. 2000, 282, 158-161). All experiments were done in triplicates.

As usually defined, the EC50 is the concentration that produces a half-maximal response. As for `O=Cc1nsc2ccc([C@]3(O)CC[C@@H](OCc4c(-c5c(Cl)cccc5Cl)noc4C4CC4)CC3)cc12` [Example 32, 5-((1s,4s)-4-((5-Cyclopropyl-3-(2,6-dichlorophenyl)isoxazol-4-yl)methoxy)-1-hydroxycyclohexyl)benzo[d]isothiazole-3-carbaldehyde], the concentration for a half-maximal effect (EC50) came out at 190 nM in assay [1] and 400 nM in assay [2].

On to `CC(C)(O)c1onc(-c2c(Cl)cccc2Cl)c1CO[C@@H]1C[C@H]2CC[C@@H](C1)[C@]2(O)c1nc2c(F)cc(C(=O)O)cc2s1` [Example 11-56, 2-((1R,3s,5S,8r)-3-((3-(2,6-Dichlorophenyl)-5-(2-hydroxypropan-2-yl)isoxazol-4-yl)methoxy)-8-hydroxybicyclo[3.2.1]octan-8-yl)-4-fluorobenzo[d]thiazole-6-carboxylic acid], for which the results for the concentration for a half-maximal effect (EC50) in assay [1] and in assay [2] were 23 nM and 290 nM, respectively.

Turning to `O=C(O)c1cc2sc([C@]3(O)CC[C@@H](OCc4c(-c5c(Cl)cccc5Cl)noc4C4CC4)CC3)nc2cc1F` [Example 11-20, 2-((1s,4s)-4-((5-Cyclopropyl-3-(2,6-dichlorophenyl)isoxazol-4-yl)methoxy)-1-hydroxycyclohexyl)-5-fluorobenzo[d]thiazole-6-carboxylic acid], the concentration for a half-maximal effect (EC50) in assay [1] is 180 nM; in assay [2], 1500 nM.

Take `O=C(O)c1cc(F)c2nc([C@]3(O)CC[C@@H](OCc4c(-c5ccccc5OC(F)F)noc4C4CC4)CC3)sc2c1` [Example 11-7, 2-((1s,4s)-4-((5-Cyclopropyl-3-(2-(difluoromethoxy)phenyl)isoxazol-4-yl)methoxy)-1-hydroxycyclohexyl)-4-fluorobenzo[d]thiazole-6-carboxylic acid]: the EC50 in assay [1] was found to be 150 nM; in assay [2], 1300 nM.

Consider `O=C(O)c1ccc2nc([C@]3(O)CC[C@@H](OCc4c(C5CC5)cnn4-c4c(Cl)cccc4Cl)CC3)sc2c1` [Example 11-13, 2-((1s,4s)-4-((4-Cyclopropyl-1-(2,6-dichlorophenyl)-1H-pyrazol-5-yl)methoxy)-1-hydroxycyclohexyl)benzo[d]thiazole-6-carboxylic acid], for which the concentration giving a half-maximal response (EC50) in assay [1] was found to be 110 nM; in assay [2] it was 440 nM.

As for `O=C(O)c1ccc2nc([C@]3(O)CC[C@@H](OCc4c(-c5ccccc5OC(F)(F)F)noc4C4CC4)CC3)sc2c1` [Example 11-14, 2-((1s,4s)-4-((5-Cyclopropyl-3-(2-(trifluoromethoxy)phenyl)isoxazol-4-yl)methoxy)-1-hydroxycyclohexyl)benzo[d]thiazole-6-carboxylic acid], the values for the EC50 in assay [1] and in assay [2] were 230 nM and 270 nM, respectively.

As for `O=C(O)c1nsc2ccc([C@]3(O)CC[C@@H](OCc4c(-c5c(Cl)cccc5Cl)noc4C4CC4)CC3)cc12` [Example 33, 5-((1s,4s)-4-((5-Cyclopropyl-3-(2,6-dichlorophenyl)isoxazol-4-yl)methoxy)-1-hydroxycyclohexyl)benzo[d]isothiazole-3-carboxylic acid], the EC50 in assay [1] was determined as 120 nM; in assay [2], 2700 nM.

With `O=C(O)c1cccc2nc([C@]3(O)CC[C@@H](OCc4c(-c5c(Cl)cccc5Cl)noc4C4CC4)CC3)ccc12` [Example 11-44, 2-((1s,4s)-4-((5-Cyclopropyl-3-(2,6-dichlorophenyl)isoxazol-4-yl)methoxy)-1-hydroxycyclohexyl)quinoline-5-carboxylic acid], the EC50 amounted to 49 nM in assay [1] and 120 nM in assay [2].

As for `O=C(O)c1ccc([C@]2(O)[C@@H]3CC[C@H]2C[C@H](OCc2c(-c4c(Cl)cccc4Cl)noc2C2CC2)C3)c(F)c1` [Example 11-24], the figures for the half-maximal effective concentration (EC50) in assay [1] and in assay [2] were 7.8 nM and 14 nM, respectively.

As to `O[C@@]1(c2nc3ccccc3s2)[C@@H]2CC3C[C@H]1C[C@](OCc1c(-c4c(Cl)cccc4Cl)noc1C1CC1)(C3)C2` [Example 24b, (1R,2s,3S,5s,7s)-2-(benzo[d]thiazol-2-yl)-5-((5-cyclopropyl-3-(2,6-dichlorophenyl)isoxazol-4-yl)methoxy)adamantan-2-ol], the values for the 50% effective concentration (EC50) in assay [1] and in assay [2] were 240 nM and 730 nM, respectively.

For `OCc1ccc([C@]2(O)CC[C@@H](OCc3c(-c4c(Cl)cccc4Cl)noc3C3CC3)CC2)c(F)c1` [Example 9-6, (1s,4s)-4-((5-Cyclopropyl-3-(2,6-dichlorophenyl)isoxazol-4-yl)methoxy)-1-(2-fluoro-4-(hydroxymethyl)phenyl)cyclohexanol], the EC50 stood at 220 nM in assay [1] and 320 nM in assay [2].

Take `O=C(O)c1ccc2nc([C@]3(O)CC[C@@H](OCc4c(-c5ccccc5OC(F)F)noc4C4CC4)CC3)sc2c1` [Example 11-10, 2-((1s,4s)-4-((5-Cyclopropyl-3-(2-(difluoromethoxy)phenyl)isoxazol-4-yl)methoxy)-1-hydroxycyclohexyl)benzo[d]thiazole-6-carboxylic acid]: the EC50 in assay [1] was found to be 250 nM; in assay [2], 1200 nM.
